pIC50, pKi: −log10 of the molar value.
Key:
[1] = target: T1, Muscarinic acetylcholine receptor M4 (Homo sapiens) (UniProt P08173); experiment: Antagonist activity at human muscarinic acetylcholine M4 receptor expressed in CHO cells co-expressing Gqi5 assessed as minimal acetylcholine response by calcium mobilization assay relative to control; format: functional, cell-based; parameters: scale not given: the % may be the effect or the level left; details: filed as antagonist
T1 sequence (whole entry): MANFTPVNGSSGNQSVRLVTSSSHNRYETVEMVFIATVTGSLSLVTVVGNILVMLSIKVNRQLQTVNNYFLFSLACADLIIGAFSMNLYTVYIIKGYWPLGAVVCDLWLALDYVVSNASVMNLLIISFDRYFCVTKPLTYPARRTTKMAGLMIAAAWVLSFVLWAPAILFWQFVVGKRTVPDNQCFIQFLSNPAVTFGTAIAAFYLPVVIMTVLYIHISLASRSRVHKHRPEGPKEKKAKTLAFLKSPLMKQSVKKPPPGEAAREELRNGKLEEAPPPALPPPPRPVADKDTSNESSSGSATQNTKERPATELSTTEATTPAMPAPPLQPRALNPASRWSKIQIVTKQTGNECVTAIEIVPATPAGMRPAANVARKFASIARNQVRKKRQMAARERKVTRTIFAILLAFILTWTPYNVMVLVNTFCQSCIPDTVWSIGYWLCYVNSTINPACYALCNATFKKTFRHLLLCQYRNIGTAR

[2] = AUC (0 to infinity) in rat at 3 mg/kg, iv; format: ADME, organism-based; parameters: time infinity, dose 3 mg/kg, route iv; details: in vivo
[3] = Cmax in rat plasma at 3 mg/kg, ip; format: ADME, organism-based; parameters: dose 3 mg/kg, route ip
[4] = Cmax in rat brain at 3 mg/kg, ip; format: ADME, organism-based; parameters: dose 3 mg/kg, route ip
[5] = Elimination half life in rat at 3 mg/kg, iv; format: ADME, organism-based; details: in vivo, read-out: beta t1/2 (converted)
[6] = Tmax in mouse plasma at 3 mg/kg, ip; format: ADME, organism-based
[7] = AUC (0.25 to last) in mouse brain at 3 mg/kg, ip; format: ADME, organism-based; details: in vivo
[8] = Ratio of AUC (0.25 to last) in mouse brain to plasma at 3 mg/kg, ip; format: ADME, organism-based; details: read-out: Ratio AUC
[9] = target: T2, Muscarinic acetylcholine receptor M4 (Homo sapiens, UniProt P08173); experiment: Displacement of [3H]-NMS from human muscarinic acetylcholine M4 receptor expressed in CHO cell membrane by competitive binding assay; format: cell membranes
T2 sequence (P08173 whole entry): T1 sequence (whole entry)

[10] = AUC (0.25 to last) in rat plasma at 3 mg/kg, ip; format: ADME, organism-based; parameters: dose 3 mg/kg, route ip
[11] = target: T3, Muscarinic acetylcholine receptor M1 (Rattus norvegicus, UniProt P08482); experiment: Inhibition of rat muscarinic acetylcholine M1 receptor expressed in CHO cells co-expressing Gqi5 preincubated with compound followed by acetylcholine addition at EC80 concentration by calcium mobilization assay; format: functional, cell-based
T3 sequence (P08482 whole entry): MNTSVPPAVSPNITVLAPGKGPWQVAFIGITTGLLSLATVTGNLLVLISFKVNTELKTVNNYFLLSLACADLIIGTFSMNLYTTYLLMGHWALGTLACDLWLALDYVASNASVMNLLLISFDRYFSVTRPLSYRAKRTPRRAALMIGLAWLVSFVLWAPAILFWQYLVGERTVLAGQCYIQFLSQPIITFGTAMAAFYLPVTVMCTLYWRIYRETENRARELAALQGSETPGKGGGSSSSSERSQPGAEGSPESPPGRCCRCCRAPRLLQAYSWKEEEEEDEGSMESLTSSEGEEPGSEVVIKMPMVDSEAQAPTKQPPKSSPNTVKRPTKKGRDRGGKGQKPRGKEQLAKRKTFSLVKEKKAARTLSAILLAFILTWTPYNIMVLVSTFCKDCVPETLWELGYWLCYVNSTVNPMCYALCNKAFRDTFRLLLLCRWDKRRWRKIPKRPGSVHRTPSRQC

[12] = Selectivity ratio of IC50 for inhibition of human muscarinic acetylcholine M2 receptor to IC50 for inhibition of human muscarinic acetylcholine M4 receptor expressed in CHO cells co-expressing Gqi5 in the presence of acetylcholine at EC80 concentration by calcium mobilization assay; format: cell-based
[13] = Cmax in mouse brain at 3 mg/kg, ip; format: ADME, organism-based; parameters: dose 3 mg/kg, route ip
[14] = Tmax in rat brain at 3 mg/kg, ip; format: ADME, organism-based
[15] = target: T4, Muscarinic acetylcholine receptor M5 (Rattus norvegicus, UniProt P08911); experiment: Inhibition of rat muscarinic acetylcholine M5 receptor expressed in CHO cells co-expressing Gqi5 preincubated with compound followed by acetylcholine addition at EC80 concentration by calcium mobilization assay; format: functional, cell-based
T4 sequence (P08911 whole entry): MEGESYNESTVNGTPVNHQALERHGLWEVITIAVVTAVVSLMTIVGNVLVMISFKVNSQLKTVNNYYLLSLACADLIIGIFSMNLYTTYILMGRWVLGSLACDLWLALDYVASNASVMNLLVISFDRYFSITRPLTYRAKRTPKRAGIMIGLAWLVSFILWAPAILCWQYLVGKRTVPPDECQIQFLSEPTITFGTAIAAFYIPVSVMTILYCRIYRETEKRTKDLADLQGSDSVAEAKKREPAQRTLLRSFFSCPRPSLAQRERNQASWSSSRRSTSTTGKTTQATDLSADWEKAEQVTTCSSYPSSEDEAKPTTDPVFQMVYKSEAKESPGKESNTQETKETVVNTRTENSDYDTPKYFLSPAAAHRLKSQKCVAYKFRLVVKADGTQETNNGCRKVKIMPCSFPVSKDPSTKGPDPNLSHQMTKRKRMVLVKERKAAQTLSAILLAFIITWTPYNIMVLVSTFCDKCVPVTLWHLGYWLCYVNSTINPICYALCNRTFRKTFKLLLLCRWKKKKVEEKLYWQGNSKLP

[16] = Plasma clearance in rat at 3 mg/kg, iv; format: ADME, organism-based
[17] = Intrinsic clearance in human liver microsomes; format: ADME, Microsome; details: read-out: CLH
[18] = Intrinsic clearance in rat liver microsomes; format: ADME, Microsome; details: read-out: CLH
[19] = Tmax in mouse brain at 3 mg/kg, ip; format: ADME, organism-based
[20] = target: T5, Muscarinic acetylcholine receptor M2 (Rattus norvegicus, UniProt P10980); experiment: Inhibition of rat muscarinic acetylcholine M2 receptor expressed in CHO cells co-expressing Gqi5 preincubated with compound followed by acetylcholine addition at EC80 concentration by calcium mobilization assay; format: functional, cell-based
T5 sequence (P10980 whole entry): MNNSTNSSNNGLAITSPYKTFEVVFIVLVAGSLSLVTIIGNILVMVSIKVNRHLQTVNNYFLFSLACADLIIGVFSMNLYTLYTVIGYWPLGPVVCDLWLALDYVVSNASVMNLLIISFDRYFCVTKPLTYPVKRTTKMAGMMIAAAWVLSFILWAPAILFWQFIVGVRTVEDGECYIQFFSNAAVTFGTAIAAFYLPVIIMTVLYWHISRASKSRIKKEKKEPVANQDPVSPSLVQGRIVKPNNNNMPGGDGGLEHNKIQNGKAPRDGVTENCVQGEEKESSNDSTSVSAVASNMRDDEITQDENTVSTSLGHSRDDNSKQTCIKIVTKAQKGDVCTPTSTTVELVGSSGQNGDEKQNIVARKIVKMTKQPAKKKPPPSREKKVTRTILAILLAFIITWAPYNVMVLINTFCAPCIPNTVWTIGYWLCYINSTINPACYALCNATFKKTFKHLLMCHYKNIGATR

Activity [1]: 3.2%
AUC(0-inf) [2]: 202 ng·h/mL
Cmax [3]: 6700 ng/mL
Cmax [4]: 477 ng/g
half-life [5]: 8.6 h
Tmax [6]: 0.5 h
AUClast [7]: 3980 ng·h/g
Kp [8]: 0.38
pKi [9]: 7.36
AUC [10]: 9550 ng·h/mL
pIC50 [11]: < 5.00
Cmax [13]: 738 ng/g
Tmax [14]: 2 h
pIC50 [15]: < 5.00
clearance [16]: 257 mL/min/kg
predicted hepatic clearance [17]: 16 mL/min/kg
CLint scaled [18]: 6.2 mL/min/kg
Tmax [19]: 2 h
pIC50 [20]: < 5.00
Compound: CC(=O)Nc1ccc(-c2ccc(NC[C@@H]3CC34CCN(CC3CCOCC3)CC4)nn2)cc1
Ratio IC50 [12]: > 140

Source: ChEMBL document CHEMBL5131409, “Synthesis and characterization of chiral 6-azaspiro[2.5]octanes as potent and selective antagonists of the M4 muscarinic acetylcholine receptor” (Bioorg Med Chem Lett, 2022)
